# Legend:
# [1] = test system: bermudagrass; experiment: Test C pre-/postemergence herbicide test; assay type: in vivo, Cynodon dactylon; conditions: for Plant response rating (0 = no effect, 100 = complete control), Bermudagrass / Plant response rating, Bermudagrass: preemergence
# In short: (§1)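 Pre/post spray; non-phytotoxic solvent + surfactant. Post-timing 1–4 leaves, 2–18 cm. Read-out: visual % control vs untreated, day 12–14, greenhouse.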
# [2] = test system: large crabgrass; experiment: Test C pre-/postemergence herbicide test; assay type: in vivo, Digitaria sanguinalis
# In short: as §1
# [3] = test system: morningglory; experiment: Test A pre-/postemergence herbicide test; assay type: in vivo, Ipomoea spp.
# In short: (§2)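 Greenhouse injury scoring (0–100, complete control = 100) at approximately ten days follows simultaneous pre- and postemergence application. Soil received a directed spray after seeding; seedlings of 2–10 cm at the one- to two-leaf stage were sprayed to runoff.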
# [4] = test system: morningglory; experiment: Test C pre-/postemergence herbicide test; assay type: in vivo, Ipomoea coccinea; design: key to Plant response rating, Morningglory: 0 = no effect, 100 = complete control; conditions: for Plant response rating (0 = no effect, 100 = complete control), Morningglory / Plant response rating, Morningglory: preemergence
# In short: as §1
# [5] = test system: common ragweed; experiment: Test C pre-/postemergence herbicide test; assay type: in vivo, Ambrosia elatior; design: key to Plant response rating, Ragweed: 0 = no effect, 100 = complete control; conditions: for Plant response rating (0 = no effect, 100 = complete control), Ragweed / Plant response rating, Ragweed: preemergence
# In short: as §1
# [6] = test system: corn; experiment: Test C pre-/postemergence herbicide test; assay type: in vivo, Zea mays; conditions: for Plant response rating (0 = no effect, 100 = complete control), Corn / Plant response rating, Corn: preemergence
# In short: as §1
# [7] = test system: barnyardgrass; experiment: Test A pre-/postemergence herbicide test; assay type: in vivo, Echinochloa crus-galli
# In short: as §2
# [8] = test system: kochia; experiment: Test C pre-/postemergence herbicide test; assay type: in vivo, Kochia scoparia; conditions: for Plant response rating (0 = no effect, 100 = complete control), Kochia / Plant response rating, Kochia: preemergence
# In short: as §1
# [9] = test system: common (oilseed) sunflower; experiment: Test C pre-/postemergence herbicide test; assay type: in vivo, Helianthus annuus; conditions: for Plant response rating (0 = no effect, 100 = complete control), Sunflower / Plant response rating, Sunflower: preemergence
# In short: as §1
# [10] = test system: giant foxtail; experiment: Test C pre-/postemergence herbicide test; assay type: in vivo, Setaria faberi; conditions: for Plant response rating (0 = no effect, 100 = complete control), Foxtail, Giant / Plant response rating, Foxtail, Giant: preemergence
# In short: as §1
# [11] = 125 g ai/ha, scale 0 (no effect) to 100 (complete control), visual, 12 to 14 days
# [12] = 250 g ai/ha, scale 0 to 100 (0 no effect, 100 complete control), visual, 12 to 14 days
# [13] = Preemergence, 500 g ai/ha, scale 0 to 100, 0 no effect, 100 complete control
# [14] = Postemergence, 500 g ai/ha, 0 to 100 scale, 0 no effect, 100 complete control
# [15] = Postemergence, 2000 g ai/ha, 0 to 100 scale, 0 no effect, 100 complete control
# [16] = Preemergence, 500 g ai/ha, visual rating, 0 to 100 scale (0 no effect, 100 complete control)
# [17] = Preemergence, 2000 g ai/ha, visual rating, 0 to 100 scale (0 no effect, 100 complete control)
# [18] = 500 g ai/ha, scale 0 to 100 (0 no effect, 100 complete control), visual, 12 to 14 days
# [19] = preemergence, 500 g ai/ha, visual injury, 0 to 100 scale (0 no effect, 100 complete control)
smiles,measurement,setting,value
CCN(CC)C(=O)c1cccc(NC(=O)c2cc(C(C)(C)C)nn2CC)n1 [Compound 145],"Plant response rating (0 = no effect, 100 = complete control), Bermudagrass",[1]; 62 g ai/ha,20
same,"Plant response rating, Bermudagrass",[1]; [11],60
same,"Plant response rating, Bermudagrass",[1]; [12],80
same,Bermudagrass plant response rating,[1]; [13],90
same,"Plant response rating, Crabgrass, Large","[2]; 125 g ai/ha, scale 0 (no effect) to 100 (complete control), visual, 12 to 14 days, preemergence",50
same,"Plant response rating, Crabgrass, Large","[2]; 250 g ai/ha, scale 0 to 100 (0 no effect, 100 complete control), visual, 12 to 14 days, preemergence",80
same,"Crabgrass, Large plant response rating",[2]; [13],80
same,Morningglory plant response rating,[3]; [14],15
same,"Plant response rating, Morningglory",[3]; [15],30
same,Morningglory plant response rating,[3]; [16],20
same,Morningglory plant response rating,[3]; [17],25
same,"Plant response rating (0 = no effect, 100 = complete control), Morningglory",[4]; 62 g ai/ha,0
same,"Plant response rating, Morningglory",[4]; [11],0
same,Morningglory plant response rating,[4]; [13],30
same,"Plant response rating (0 = no effect, 100 = complete control), Ragweed",[5]; 62 g ai/ha,0
same,"Plant response rating, Ragweed",[5]; [11],0
same,Ragweed plant response rating,[5]; [13],20
same,"Plant response rating (0 = no effect, 100 = complete control), Corn",[6]; 62 g ai/ha,0
same,"Plant response rating, Corn",[6]; [11],0
same,"Plant response rating, Corn",[6]; [12],5
same,Corn plant response rating,[6]; [13],20
same,Barnyardgrass plant response rating,[7]; [14],40
same,"Plant response rating, Barnyardgrass",[7]; [15],100
same,Barnyardgrass plant response rating,[7]; [16],95
same,Barnyardgrass plant response rating,[7]; [17],100
same,"Plant response rating (0 = no effect, 100 = complete control), Kochia",[8]; 62 g ai/ha,20
same,"Plant response rating, Kochia",[8]; [11],60
same,Kochia plant response rating,[8]; [13],80
same,"Plant response rating (0 = no effect, 100 = complete control), Sunflower",[9]; 62 g ai/ha,0
same,"Plant response rating, Sunflower",[9]; [11],0
same,Sunflower plant response rating,[9]; [13],30
same,"Plant response rating (0 = no effect, 100 = complete control), Foxtail, Giant",[10]; 62 g ai/ha,0
same,"Plant response rating, Foxtail, Giant",[10]; [11],0
same,"Plant response rating, Foxtail, Giant",[10]; [12],50
same,"Foxtail, Giant plant response rating",[10]; [13],70
CCc1nn(C(C)(C)C)nc1C(=O)Nc1cccc(C(=O)NC2CC2)c1 [Compound 417],"Plant response rating, Bermudagrass","[1]; 62 g ai/ha, scale 0 to 100, 0 no effect, 100 complete control",100
same,"Plant response rating (0 = no effect, 100 = complete control), Bermudagrass",[1]; 125 g ai/ha,100
same,"Plant response rating, Bermudagrass","[1]; 250 g ai/ha, scale 0-100",100
same,"Plant response rating, Bermudagrass",[1]; [18],100
same,"Plant response rating, Crabgrass, Large","[2]; 62 g ai/ha, preemergence, scale 0 to 100",100
same,"Plant response rating (0 = no effect, 100 = complete control), Crabgrass, Large","[2]; 125 g ai/ha, preemergence",100
same,"Plant response rating, Crabgrass, Large","[2]; 250 g ai/ha, scale 0-100, preemergence",100
same,"Plant response rating, Crabgrass, Large","[2]; 500 g ai/ha, scale 0 to 100 (0 no effect, 100 complete control), visual, 12 to 14 days, preemergence",100
same,Morningglory plant response rating,[3]; [14],70
same,"Plant response rating, Morningglory",[3]; [15],85
same,Morningglory plant response rating,[3]; [17],80
same,Morningglory plant response rating,[3]; [19],20
same,"Plant response rating, Morningglory","[4]; 62 g ai/ha, scale 0 to 100",0
same,"Plant response rating (0 = no effect, 100 = complete control), Morningglory",[4]; 125 g ai/ha,20
same,"Plant response rating, Morningglory",[4]; [18],95
same,"Plant response rating, Ragweed","[5]; 62 g ai/ha, scale 0 to 100",0
same,"Plant response rating (0 = no effect, 100 = complete control), Ragweed",[5]; 125 g ai/ha,20
same,"Plant response rating, Ragweed",[5]; [18],90
same,"Plant response rating, Corn","[6]; 62 g ai/ha, scale 0 to 100",0
same,"Plant response rating (0 = no effect, 100 = complete control), Corn",[6]; 125 g ai/ha,0
same,"Plant response rating, Corn","[6]; 250 g ai/ha, scale 0-100",10
same,"Plant response rating, Corn",[6]; [18],65
same,Barnyardgrass plant response rating,[7]; [14],65
same,"Plant response rating, Barnyardgrass",[7]; [15],80
same,Barnyardgrass plant response rating,[7]; [17],85
same,Barnyardgrass plant response rating,[7]; [19],60
same,"Plant response rating, Kochia","[8]; 62 g ai/ha, scale 0 to 100",0
same,"Plant response rating (0 = no effect, 100 = complete control), Kochia",[8]; 125 g ai/ha,85
same,"Plant response rating, Kochia","[8]; 250 g ai/ha, scale 0-100",100
same,"Plant response rating, Kochia",[8]; [18],100
same,"Plant response rating, Sunflower","[9]; 62 g ai/ha, scale 0 to 100",0
same,"Plant response rating (0 = no effect, 100 = complete control), Sunflower",[9]; 125 g ai/ha,0
same,"Plant response rating, Sunflower",[9]; [18],0
same,"Plant response rating, Foxtail, Giant","[10]; 62 g ai/ha, scale 0 to 100",65
same,"Plant response rating (0 = no effect, 100 = complete control), Foxtail, Giant",[10]; 125 g ai/ha,90
same,"Plant response rating, Foxtail, Giant","[10]; 250 g ai/ha, scale 0-100",95
same,"Plant response rating, Foxtail, Giant",[10]; [18],100
